# Experiment: Solubility Comparing Test (saturation concentration of dye in alcohol type solvents)
# Type: physicochemical
# Settings: for Solubility, Mixed solvent: Phenylene glycol:Benzyl alcohol:oleic acid = 4:1:1; for Solubility, Mixed solvent / Solubility, Ethylene glycol: dye added after heating the solvent to 70-80 C; for Solubility, Ethanol / Solubility, n-Propanol: saturation concentration by spotting on filter paper
# Experimental: Solubility of disazo salt-forming dyes (dye 1-5) obtained in Examples 1-5 and dyes a-c into alcohol type organic […] was tested. While stirring each dye with a magnet stirrer, the dye was first added to 100 parts of solvent and it was spotted on the filter paper (Toyo filter paper No. 2) to investigate the saturation concentration. When ethylene glycol or mixed solvent was used for the solvent, dye was added after heating the solvent to 70-80 C.
# Phenylene glycol:Benzyl alcohol:oleic acid = 4:1:1
# 2) Numbers in the Table indicate the solubility (wt %) into the respectiv
structure (smiles),measurement,setting,value
CCC(C)c1ccc(N=Nc2c(S(=O)(=O)O)cc3cc(Nc4ccc5c(O)c(N=Nc6ccc(C(C)CC)cc6)c(S(=O)(=O)O)cc5c4)ccc3c2O)cc1 (centres unmarked) [Dye 1],"Solubility, Mixed solvent",listed as 1,30 wt %
same,"Solubility, Ethanol",listed as 1,20 wt %
same,"Solubility, Ethylene glycol",,30 wt %
same,"Solubility, n-Propanol",listed as 1,15 wt %
CCC(C)c1ccc(N=Nc2c(S(=O)(=O)O)cc3cc(Nc4ccc5c(O)c(N=Nc6ccc(C(C)CC)cc6)c(S(=O)(=O)O)cc5c4)ccc3c2O)cc1 (centres unmarked) [Dye 2],"Solubility, Mixed solvent",listed as 2,40 wt %
same,"Solubility, Ethanol",listed as 2,25 wt %
same,"Solubility, Ethylene glycol",,30 wt %
same,"Solubility, n-Propanol",listed as 2,20 wt %
CCC(C)c1ccc(N=Nc2c(S(=O)(=O)O)cc3cc(Nc4ccc5c(O)c(N=Nc6ccc(C(C)CC)cc6)c(S(=O)(=O)O)cc5c4)ccc3c2O)cc1 (centres unmarked) [Dye 3],"Solubility, Mixed solvent",listed as 3,30 wt %
same,"Solubility, Ethanol",listed as 3,20 wt %
same,"Solubility, n-Propanol",listed as 3,10 wt %
O=S(=O)(O)c1cc2cc(Nc3ccc4c(O)c(N=Nc5ccccc5)c(S(=O)(=O)O)cc4c3)ccc2c(O)c1N=Nc1ccccc1 [Dye a],"Solubility, Mixed solvent",,30 wt %
same,"Solubility, Ethanol",listed as a,10 wt %
same,"Solubility, Ethylene glycol",,30 wt %
same,"Solubility, n-Propanol",,5 wt %
"O=S(=O)(O)c1cc2cc(Nc3ccc4c(O)c(N=Nc5ccccc5)c(S(=O)(=O)O)cc4c3)ccc2c(O)c1N=Nc1ccccc1 [Dye b, reference compound]","Solubility, Ethanol",listed as b,5 wt %
"COc1cc(N=Nc2ccccc2)c(C)cc1N=Nc1c(S(=O)(=O)O)cc2cc(S(=O)(=O)O)cc(N)c2c1O [Dye c, reference compound]","Solubility, Mixed solvent",,40 wt %
same,"Solubility, Ethanol",,10 wt %
same,"Solubility, Ethylene glycol",,30 wt %
same,"Solubility, n-Propanol",,10 wt %
